Like-named read-outs stand apart in the source and are kept apart here.

Consider 15 molecules from US20250145608A1, “KRAS DEGRADING COMPOUNDS COMPRISING ANNULATED 2-AMINO-3-CYANO THIOPHENES” (Boehringer Ingelheim Int'l GmbH Corp., priority 2021, published 2025).

Holding throughout (type): cell-based
In experiment [1] the target is T1, KRAS(G12D) (Homo sapiens, UniProt P01116, G12D).
T1 construct: introduced immediately downstream of the initiating Methionine codon of the endogenous KRAS locus; host or cells: GP5d-HiBit-KRAS(G12D), a CRISPR knock-in at the endogenous locus
T1 sequence (P01116 1-188 isoform P01116-2 G12D): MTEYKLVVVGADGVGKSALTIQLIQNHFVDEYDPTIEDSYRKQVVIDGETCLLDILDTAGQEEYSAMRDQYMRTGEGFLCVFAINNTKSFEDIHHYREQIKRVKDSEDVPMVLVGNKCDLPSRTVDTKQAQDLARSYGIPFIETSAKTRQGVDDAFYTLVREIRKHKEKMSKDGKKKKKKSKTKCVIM
The experiment can be described thus: HiBit degradation assay in GP5d-HiBit-KRAS(G12D) cells (18 h; DC50, Dmax). As for the experimental part: A HiBit protein detection tag (amino acid sequence […], Seq ID No 1) was introduced immediately downstream of the initiating Methionine codon of the endogenous KRAS locus (Ensembl gene ID ENSG00000133703.7) of GP5d cells (ECACC Cat. No. 95090715) by CRISPR-based genome engineering using a KRAS(G12D) mutant donor construct encoding the HiBit tag. […] Correct modification of the KRAS locus was assessed by PCR-based genotyping and Sanger sequencing of the isolated PCR products. The resulting cell line is referred to as GP5d-HiBit-KRAS(G12D).
To assess PROTAC-mediated degradation of KRAS(G12D), GP5d-HiBit-KRAS(G12D) cells were seeded at 25000 cells per well in 100 μL Dulbecco's Modified Eagle medium (Sigma cat. no. D6429) supplemented with 10% fetal calf serum into white bottom opaque 96 well plates (Perkin Elmer cat no. 5680). Plates were incubated at 37° C., 5% CO2 in a humidified incubator over night to allow the cells to adhere. […] Plates were further incubated at 37° C. for 18 hours. Following incubation, 100 μL per well Promega Nano-Glo HiBit lytic detection reagent mix (Promega Nano-Glo HiBit Lytic Detection System #N3050), prepared according to the manufacturer's instructions in the kit, were added. To allow for adequate cell lysis, plates were incubated on an orbital shaker for 15 min and further incubated 30 min at room temperature. Upon completion of cell lysis, luminescence was measured using an Envision plate reader using the Ultrasensitive Luminescence Protocol for 96 well plates. Luminescence levels were normalized by the values obtained with DMSO-treated samples and plotted as percent of DMSO control. DC50 values were computed using a four parametric logistic model. Dmax values represent the maximal extent of degradation observed and is stated as percent of control (% Ctrl.) treatments. DC50 and Dmax are reported in Table 64 for representative compounds of the invention.
On the technique in general: HiBiT is a short tag that completes a luciferase, so light tracks the accessible tagged protein.

In experiment [2] the test system is NCI-H358 cells. The experiment can be described thus: NCI-H358 CTG proliferation assay (120 h) (NSCLC, G12C). The note with it: Homo sapiens. How it is done: NCI-H358 CTG Proliferation Assay (120 h) (NSCLC, G12C)
NCI-H358 cells (ATCC No. CRL-5807) are dispensed into white bottom opaque 96 well plates (Perkin Elmer cat no. 5680) at a density of 2000 cells per well in 100 μL RPMI-1640 ATCC-Formulation (Gibco #A10491)+10% FCS (fetal calf serum) (assay 1) or into black 384-well plates, flat and clear bottom (Greiner, PNr. 781091) at a density of 200 cells per well in 60 μl RPMI-1640 ATCC-Formulation (Gibco #A10491)+10% FCS (fetal calf serum) (assay 2). […] Compounds (10 mM stock in DMSO) are added at logarithmic dose series using the HP Digital Dispenser D300 (Tecan) (assay 1) or the ECHO acoustic liquid handler system (Beckman Coulter) (assay 2), normalizing for added DMSO and including DMSO controls. For the TO time point measurement, untreated cells are analyzed at the time of compound addition. Plates are incubated for 120 h, and cell viability is measured using CellTiter-Glo luminescent cell viability reagent (Promega product code G7570). Viability (stated as percent of control) is defined as relative luminescence units RLU of each well divided by the RLU of cells in DMSO controls. IC50 values are determined from viability measurements by non-linear regression using a four parameter model.

Experiment [3] has as its system GP5d cells. The experiment is described as follows: GP5d cell proliferation assay (colorectal cancer, G12D), 5 days. The note with it: Homo sapiens, 120 h. As for the experimental part: GP5d Cell Proliferation Assay (Colorectal Cancer, G12D)
(§1) GP5d cells (ECACC 95090715) are dispensed into white bottom opaque 96 well plates at a density of 5000 cells per well in 100 μL DMEM (BioWhittaker, Cat #BE12-605F) supplemented with 10% FCS. […] Compounds (10 mM stock in DMSO) are added at logarithmic dose series using the HP Digital Dispenser D300 (Tecan), normalizing for added DMSO. For the TO time point measurement, untreated cells are analysed at the time of compound addition. Plates are incubated for 5 days, and cell viability is measured using CellTiter-Glo luminescent cell viability reagent (Promega, Cat. No G7570). Viability (stated as percent of control) is defined as relative luminescence units RLU of each well divided by the RLU of cells in DMSO controls. IC50 values were computed from relative viability values using a four parametric logistic model.

In experiment [4] the test system is SW620 cells. The experiment is described as follows: SW620 cell proliferation assay (colorectal cancer, G12V), 5 days. Particulars: Homo sapiens, SW-620, 120 h. As for the experimental part:
SW620 Cell Proliferation Assay (Colorectal Cancer, G12V)
as §1, with “SW620” for “GP5d”, “(ATCC CCL-227)” for “(ECACC 95090715)”, “plates (Perkin Elmer cat no. 5680)” for “plates”, “2000” for “5000”

The mark [5] stands for this setting: assay 1, read-out: H358 (assay 1) IC50.
Where [6] appears, read: assay 2, read-out: H358 (assay 2) IC50.

As for `Cc1ncsc1-c1ccc(CNC(=O)[C@@H]2C[C@@H](O)CN2C(=O)[C@H](c2cc(OCCCCN3CCCN(c4nccc(-c5noc([C@@]6(C)CCCc7sc(N)c(C#N)c76)n5)n4)[C@@H](C)C3)no2)C(C)C)cc1` (single isomer, unassigned) [I-26], in experiment [1], the half-maximal degradation concentration (DC50) – broadly, the concentration at which degradation of the target reaches its halfway point – amounted to 101 nM. The “Dmax 18 h” value in experiment [1] came out at 77 % Ctrl. For the same molecule, the half-maximal inhibitory concentration (IC50) (in general, the point on the concentration scale where inhibition reaches its midpoint) in experiment [2] (setting [5]) came out at 485 nM; in experiment [2] (setting [6]), 435 nM; in experiment [3], 133 nM; in experiment [4] it was 265 nM.
Regarding `Cc1ncsc1-c1ccc([C@@H](NC(=O)[C@@H]2C[C@@H](O)CN2C(=O)[C@@H](C(C)C)n2cc(OCCCCN3CCCN(c4nccc(-c5noc([C@@]6(C)CCCc7sc(N)c(C#N)c76)n5)n4)[C@@H](C)C3)nn2)[C@H](C)O)cc1` (single isomer, unassigned) [I-40], in experiment [1], half-maximal degradation (DC50) was put at 970 nM and the “Dmax 18 h” value is on record as 61 % Ctrl. The 50% inhibitory concentration (IC50) in experiment [2] (setting [6]) was determined as 2720 nM.
As to `Cc1ncsc1-c1ccc([C@@H](NC(=O)[C@@H]2C[C@@H](O)CN2C(=O)[C@@H](C(C)C)n2cc(OCCCN3CCCN(c4nccc(-c5noc([C@@]6(C)CCCc7sc(N)c(C#N)c76)n5)n4)[C@@H](C)C3)nn2)[C@H](O)C(C)C)cc1` (single isomer, unassigned) [I-42], in experiment [1], it took 462 nM to reach half-maximal degradation (DC50) and the “Dmax 18 h” value amounted to 74 % Ctrl. Besides, the IC50 in experiment [2] (setting [6]) was 1920 nM.
On the same counts, the results for `Cc1ncsc1-c1ccc([C@@H](NC(=O)[C@@H]2C[C@@H](O)CN2C(=O)[C@@H](C(C)C)n2cc(OCCCCN3CCCN(c4nccc(-c5noc([C@@]6(C)CCCc7sc(N)c(C#N)c76)n5)n4)[C@@H](C)C3)nn2)[C@H](O)C(C)C)cc1` (single isomer, unassigned) [I-44] are 49.7 nM, 88 % Ctrl and 604 nM.
The molecule `Cc1ncsc1-c1ccc(CNC(=O)[C@@H]2C[C@@H](O)CN2C(=O)C(c2cc(OCCCN3CCCN(c4nccc(-c5noc([C@@]6(C)CCCc7sc(N)c(C#N)c76)n5)n4)[C@@H](C)C3)no2)C(C)C)cc1` (some centres unmarked) [I-1] yielded a 50% degradation concentration (DC50) in experiment [1] of 6.4 nM. Besides, the “Dmax 18 h” value in experiment [1] is given as 94 % Ctrl. For the same molecule, the IC50 in experiment [2] (setting [5]) came to 151 nM; in experiment [2] (setting [6]), 96.5 nM; in experiment [3], 22.2 nM; in experiment [4], 27.3 nM.
In experiment [1], `Cc1ncsc1-c1ccc(CNC(=O)[C@@H]2C[C@@H](O)CN2C(=O)C(c2cc(OCCN3CCCN(c4nccc(-c5noc([C@@]6(C)CCCc7sc(N)c(C#N)c76)n5)n4)[C@@H](C)C3)no2)C(C)C)cc1` (some centres unmarked) [I-2] displayed a DC50 of 263 nM. In addition, the “Dmax 18 h” value in experiment [1] was 84 % Ctrl. Also, the results for the 50% inhibitory concentration (IC50) in experiment [2] (setting [5]), in experiment [3] and in experiment [4] were 2930 nM, at least 9000 nM and 598 nM, respectively.
Take `Cc1ncsc1-c1ccc(CNC(=O)[C@@H]2C[C@@H](O)CN2C(=O)C(c2cc(OCCCCN3CCCN(c4nccc(-c5noc([C@@]6(C)CCCc7sc(N)c(C#N)c76)n5)n4)[C@@H](C)C3)no2)C(C)C)cc1` (some centres unmarked) [I-3]: it took 2.7 nM to reach half-maximal degradation in experiment [1] (DC50). In experiment [1], the “Dmax 18 h” value is on record as 91 % Ctrl. Also, the half-maximal inhibitory concentration (IC50) in experiment [2] (setting [5]) amounted to 66 nM; in experiment [2] (setting [6]), 60.7 nM; in experiment [3], 6.14 nM; in experiment [4], 13.1 nM.
`Cc1ncsc1-c1ccc(CNC(=O)[C@@H]2C[C@@H](O)CN2C(=O)C(c2cc(OCCCCN3CCCN(c4nccc(-c5noc([C@@]6(C)CCCc7sc(N)c(C#N)c76)n5)n4)[C@@H](C)C3)no2)C(C)C)cc1F` (some centres unmarked) [I-5] had a DC50 in experiment [1] of 6.5 nM. For the same molecule, the “Dmax 18 h” value in experiment [1] stood at 92 % Ctrl. Also, the IC50 in experiment [2] (setting [5]) was determined as 117 nM; in experiment [2] (setting [6]), 58.4 nM; in experiment [3], 13.8 nM; in experiment [4], 47.9 nM.
`CC(C)C(C(=O)N1C[C@H](O)C[C@H]1C(=O)NCc1ccc(Br)cc1)c1cc(OCCCCN2CCCN(c3nccc(-c4noc([C@@]5(C)CCCc6sc(N)c(C#N)c65)n4)n3)[C@@H](C)C2)no1` (some centres unmarked) [I-7] had a DC50 in experiment [1] of 11 nM. Besides, the “Dmax 18 h” value in experiment [1] is recorded as 89 % Ctrl. The IC50 in experiment [2] (setting [5]) worked out at 480 nM; in experiment [2] (setting [6]), 180 nM; in experiment [3], 23.4 nM; in experiment [4] it was 55.9 nM.
Turning to `Cc1ncsc1-c1ccc(CNC(=O)[C@@H]2C[C@@H](O)CN2C(=O)C(c2cc(OCCOCCN3CCCN(c4nccc(-c5noc([C@@]6(C)CCCc7sc(N)c(C#N)c76)n5)n4)[C@@H](C)C3)no2)C(C)C)cc1` (some centres unmarked) [I-14], in experiment [1], the half-maximal degradation concentration (DC50) was 76 nM and the “Dmax 18 h” value is recorded as 80 % Ctrl. The half-maximal inhibitory concentration (IC50) in experiment [2] (setting [6]) was found to be 843 nM.
On the same counts, the results for `Cc1ncsc1-c1ccc(CNC(=O)[C@@H]2C[C@@H](O)CN2C(=O)C(c2cc(OC/C=C/CN3CCCN(c4nccc(-c5noc([C@@]6(C)CCCc7sc(N)c(C#N)c76)n5)n4)[C@@H](C)C3)no2)C(C)C)cc1` (some centres unmarked) [I-15] are 9.8 nM, 90 % Ctrl and 122 nM.
On the same counts, the results for `CC(C)C(C(=O)N1C[C@H](O)C[C@H]1C(=O)NCc1ccc(-n2cncn2)cc1)c1cc(OCCCCN2CCCN(c3nccc(-c4noc([C@@]5(C)CCCc6sc(N)c(C#N)c65)n4)n3)[C@@H](C)C2)no1` (some centres unmarked) [I-17] are 3.3 nM, 93 % Ctrl and 89.5 nM.
As for `Cc1ncsc1-c1ccc(CNC(=O)[C@@H]2C[C@@H](O)CN2C(=O)C(c2cc(OCCCN3CCCN(c4ccnc(-c5noc([C@@]6(C)CCCc7sc(N)c(C#N)c76)n5)n4)[C@@H](C)C3)no2)C(C)C)cc1` (some centres unmarked) [I-21], in experiment [1], the DC50 came to 41.1 nM and the “Dmax 18 h” value worked out at 90 % Ctrl. For the same molecule, the 50% inhibitory concentration (IC50) in experiment [2] (setting [6]) is 81.3 nM.
For the molecule `Cc1ncsc1-c1ccc(CNC(=O)[C@@H]2C[C@@H](O)CN2C(=O)C(c2cc(OCCCCN3CCCN(c4ccnc(-c5noc([C@@]6(C)CCCc7sc(N)c(C#N)c76)n5)n4)[C@@H](C)C3)no2)C(C)C)cc1` (some centres unmarked) [I-22], in experiment [1], it took 48.8 nM to reach half-maximal degradation (DC50) and the “Dmax 18 h” value is recorded as 92 % Ctrl. The half-maximal inhibitory concentration (IC50) in experiment [2] (setting [6]) amounted to 97.5 nM.
As to `Cc1ncsc1-c1ccc([C@H](CCOP(=O)(O)O)NC(=O)[C@@H]2C[C@@H](O)CN2C(=O)[C@H](C(C)C)n2cc(OCCCCN3CCCN(c4nccc(-c5noc([C@@]6(C)CCCc7sc(N)c(C#N)c76)n5)n4)[C@@H](C)C3)nn2)cc1` [I-39], in experiment [1], the DC50 turned out to be 7.7 nM and the “Dmax 18 h” value is 87 % Ctrl. Besides, in experiment [2] (setting [6]), the half-maximal inhibitory concentration (IC50) is 57 nM.
